Source: patent publication US5760036A, “Aminediol protease inhibitors” (E. R. Squibb & Sons, Inc., priority 1995, dated 1998)
Where two headings read alike, the source gives them in different places.

Columns and labels:
HIV protease = target: T1, HIV protease (Human immunodeficiency virus type 1 group M subtype B, UniProt P04585); assay: HIV Protease Assay; type: biochemical
T1 construct: and purified protease
How it was run: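 Purified protease cleaved 450 μM octapeptide substrate in 50 mM sodium acetate pH 5.5 with 100 μg/ml BSA for 30 minutes at 37° C; product analyzed by reverse-phase HPLC at UV220 after H3PO4 quench. Inhibitors tested at final 10 μM with 4% DMSO.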

[1] = system: RF strain of HIV (CEM-SS cells); assay: Cell Culture Anti-HIV Activity (cell viability, formazan); type: cell-based; conditions: CEM-SS cells, RF strain of HIV, multiplicity of infection 0.04, 6 days at 37° C., 450 nm, read-out: HIV (CEM Cells) IC50
How it was run: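 CEM-SS cells (5000/well) infected with HIV RF at MOI 0.04, exposed to half-log serial compound dilutions, incubated 6 days at 37° C. Viability read by tetrazolium reduction to formazan, absorbance 450 nm. IC50 is the concentration raising formazan in infected cells to 50% of uninfected, drug-free cells.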

[2] = pH 5.5, 10 μM inhibitor, 4% DMSO, 450 μM substrate, pH 5.5, 30 minutes at 37° C., RP-HPLC, read-out: HIV Protease % Inhibition at 10 μM
[3] = Human immunodeficiency virus 1, CEM-SS, 144 h
[4] = pH 5.5, read-out: HIV Protease % Inhibition at 10 μM

| inhibition at 10 µM (HIV protease; [2]) [%] | inhibition at 10 µM (HIV protease; [4]) [%] | HIV Protease % Inhibition at 10 μM (HIV protease; 10 μM inhibitor, 4% DMSO, 450 μM substrate, pH 5.5, 30 minutes at 37° C., RP-HPLC) [%] | SMILES | IC50 [1, 3] [nM] | IC50 [1] [nM] |
| --- | --- | --- | --- | --- | --- |
| 99 | – | – | CC(C)(C)OC(=O)N[C@@H](Cc1ccccc1)[C@H](O)CNC[C@@H](O)[C@H](Cc1ccccc1)NC(=O)[C@H](O)C(C)(C)C [Compound 334, [1S-[1R*,2S*[2S*,3R*(S*)]]]-[3-[[3-[(2-Hydroxy-3,3-dimethyl-1-oxobutyl)amino]-2-hydroxy-4-phenylbutyl]amino]-2-hydroxy-1-(phenylmethyl)propyl]carbamic acid, 1,1-dimethylethyl ester] | 50 | – |
| – | 100 | – | CC(C)(C)OC(=O)N[C@@H](CC1CCCCC1)[C@H](O)CNC[C@@H](O)[C@H](CC1CCCCC1)NC(=O)OC(C)(C)C [Compound 14, [R-(R*,S*)]-[Iminobis[1-(cyclohexylmethyl)-2-hydroxy-3,1-propanediyl]]-biscarbamic acid, bis(1,1-dimethylethyl) ester] | 1100 | – |
| 5 | – | – | CN(CC(O)C(Cc1ccccc1)NC(=O)OC(C)(C)C)CC(O)C(Cc1ccccc1)NC(=O)OC(C)(C)C (stereo not drawn) [Compound 200, [1S-[1R*,2R*(1R*)]]-[3-[[3-[[(1,1-Dimethylethoxy)carbonyl]-amino]-2-hydroxy-4-phenylbutyl]-methylamino]-2-hydroxy-1-(phenylmethyl)propyl]-carbamic acid, 1,1-dimethylethyl ester] | > 15000 | – |
| 10 | – | – | CN(CC(=O)[C@H](Cc1ccccc1)NC(=O)OC(C)(C)C)C[C@@H](O)[C@H](Cc1ccccc1)NC(=O)OC(C)(C)C [Compound 197, [1S-[1R*(2S*,3R*)]]-[3-[[3-[[(1,1-Dimethylethoxy)carbonyl]-amino]-2-hydroxy-4-phenylbutyl]-methylamino]-2-oxo-1-(phenylmethyl)propyl]carbamic acid, 1,1-dimethylethyl ester] | > 10000 | – |
| – | 99 | – | CN1CCN(CCOc2ccc(C[C@H](NC(=O)OC(C)(C)C)[C@H](O)CNC[C@@H](O)[C@H](Cc3ccccc3)NC(=O)OC(C)(C)C)cc2)C1=O [Compound 363, [1S-[1R*,2S*(2S*,3R*)]]-[3-[[3-[[(1,1-Dimethylethoxy)carbonyl]amino]-2-hydroxy-4-[4-[2-(3-methyl-2-oxo-1-imidazolidinyl)-ethoxy]phenyl]butyl]amino]-2-hydroxy-1-(phenylmethyl)propyl]carbamic acid, 1,1-dimethylethyl ester] | 40 | – |
| 99 | – | – | CC(C)[C@H](NC(=O)CO)C(=O)N[C@@H](Cc1ccccc1)[C@H](O)CNC[C@@H](O)[C@H](Cc1ccccc1)NC(=O)OC(C)(C)C (relative stereo) [Compound 259, [1R*, 2S* (2S*, 3R*)]-N-[3-[[3-[[(1,1-Dimethylethoxy)carbonyl]amino]-2-hydroxy-4-phenylbutyl]amino]-2-hydroxy-1-(phenylmetyl)propyl]-N^2-(hydroxyacetyl)-L-valinamide] | 5000 | – |
| 100 | – | – | CN(C)C(=O)N[C@H](C(=O)N[C@@H](Cc1ccccc1)[C@H](O)CNC[C@@H](O)[C@H](Cc1ccccc1)NC(=O)OC(C)(C)C)C(C)(C)C (relative stereo) [Compound 305, [1R*,2S* (2S*,3R*)]-N-[3-[[3-[[(1,1Dimethylethoxy)carbonyl]amino]-2-hydroxy-4-phenylbutyl]amino]-2-hydroxy-1-(phenylmethyl)propyl]-N^2-[(dimethylamino)carbonyl)-3-methyl-L-valinamide] | 200 | – |
| 99 | – | – | CC(C)(C)OC(=O)N[C@@H](Cc1ccccc1)[C@H](O)CNC[C@@H](O)[C@H](Cc1ccccc1)NC(=O)[C@@H](NC(=O)OCc1nc2ccccc2s1)C(C)(C)C [Compound 292, [S-[1R*,2S*(2S*,3R*)]]-[2,2-Dimethyl-1-[[[3-[[3-[[(1,1-dimethylethoxy)carbonyl]amino]-2-hydroxy-4-phenylbutyl]amino]-2-hydroxy-1-(phenylmethyl)propyl]amino]carbonyl]propyl]carbamic acid, (2-benzothiazolyl)methyl ester] | 170 | – |
| 99 | – | – | CC(C)(C)OC(=O)N[C@@H](Cc1ccccc1)[C@H](O)CNC[C@@H](O)[C@H](Cc1ccccc1)NC(=O)[C@@H](NC(=O)OCc1cc2cccnc2o1)C(C)(C)C [Compound 352, [S-[1R*,2S*(2S*,3R*)]]-[2,2-Dimethyl-1-[[[3-[[3-[[(1,1-dimethylethoxy)carbonyl]amino]-2-hydroxy-4-phenylbutyl]amino]-2-hydroxy-1-(phenylmethyl)-propyl]amino]carbonyl]propyl]carbamic acid, (2-furo[2,3-b]pyridinyl)methyl ester] | 100 | – |
| 99 | – | – | CC(C)[C@H](NC(=O)[C@@H](O)Cc1ccccc1)C(=O)N[C@@H](Cc1ccccc1)[C@H](O)CNC[C@@H](O)[C@H](Cc1ccccc1)NC(=O)OC(C)(C)C [Compound 77, [S-[1R*,2S*(2S*,3R*,N^2 R*]]-N-[3-[[3-[[(1,-Dimethylethoxy)carbonyl]amino]-2-hydroxy-4-phenylbutyl]amino]-2-hydroxy-(phenyyl-methyl)propyl]N^2-(2-hydroxy-1-oxo-3-phenyl-propyl)-L-valinamide] | 200 | – |
| – | – | 99 | CC1(C)CCCC1(O)C(=O)N[C@@H](Cc1ccccc1)[C@H](O)CNC[C@@H](O)[C@H](Cc1ccccc1)NC(=O)C1(O)CCCC1(C)C (single isomer, unassigned; isomer b) [Compound 337] | – | 290 |
| 99 | – | – | CC(C)(C)OC(=O)N[C@@H](Cc1ccccc1)[C@H](O)CNC[C@@H](O)[C@H](Cc1ccc(OCCCN2CCOCC2)cc1)NC(=O)OC(C)(C)C [Compound 201, [1S-[1R*,2S*(2S*,3R*)]]-[3-[[3-[[(1,1-Dimethylethoxy)carbonyl]aminol-2-hydroxy-4-[4-[3-(4-morpholinyl)propoxy]phenyl]butyl]amino]-2-hydroxy-1-(phenylmethyl)propyl]carbamic acid, 1,1-dimethylethyl ester] | 40 | – |
| 100 | – | – | CC(C)(C)OC(=O)N[C@@H](Cc1ccccc1)[C@H](O)CNC[C@@H](O)[C@H](Cc1ccccc1)NC(=O)[C@@H](NC(=O)OCc1cnc2ccccc2n1)C(C)(C)C [Compound 311, [S-[1R*,2S*(2S*,3R*)]]-[2.2-Dimethyl-1-[[[3-[[(1,1-dimethylethoxy)carbonyl]amino]-2-hydroxy-4-phenylbutyl]amino]-2-hydroxy-1-(phenylmethyl)-propyl]aminocarbonyl]propyl]carbamic acid, (2-quinoxalinyl)methyl ester] | 50 | – |
| 81 | – | – | CC(C)(C)OC(=O)N[C@@H](Cc1ccccc1)[C@H](O)CNC[C@@H](O)[C@H](Cc1ccccc1)NC(=O)OC(C)(C)CCCOCc1ccccc1 [Compound 210, [1S-(1R*,2S*)]-[Iminobis[2-hydroxy-1-(phenylmethyl)-3,1-propanediyl]]biscarbamic acid, 1,1-dimethylethyl-4-(phenylmethoxy)-1,1-dimethylbutyl ester] | > 5000 | – |
| 99 | – | – | O=C(N[C@@H](Cc1ccccc1)[C@H](O)CNC[C@@H](O)[C@H](Cc1ccccc1)NC(=O)O[C@H]1CCOC1)O[C@H]1CCOC1 [Compound 338, [1S-(1R*,2S*), (R*)]-[Iminobis[2-hydroxy-1-(phenylmethyl)-3,1-propanediyl]]bis[carbamic acid], bis(3-tetrahydrofuranyl)ester] | 930 | – |
| 99 | – | – | CC(C)(C)OC(=O)N[C@@H](Cc1ccccc1)[C@H](O)CNC[C@@H](O)[C@H](Cc1ccc(O)cc1)NC(=O)OC(C)(C)C [Compound 21, [1S-[1R*,2S*(2S*,3R*)]]-3-[[3-[[(1,1-Dimethylethoxy)carbonyl]amino]-2-hydroxy-4-(4-hydroxyphenyl)butyl]amino]-2-hydroxy-1-(phenylmethyl)propyl]carbamic acid, 1,1-dimethylethyl ester] | 90 | – |
| 65 | – | – | CC(C)(C)OC(=O)N[C@@H](Cc1ccccc1)[C@H](O)CNC[C@@H](O)[C@H](Cc1ccccc1)NC(=O)OC(C)(C)CCCNCc1ccccc1 [Compound 153, [1S-(1R*,2S*)]-[Iminobis[2-hydroxy-1-(phenylmethyl)-3,1-propanediyl]biscarbamic acid, 1,1-dimethylethyl 1,1-dimethyl-4-[(phenylmethyl)-amino]butyl ester] | > 550 | – |
| 82 | – | – | CC(C)(C)OC(=O)N[C@@H](Cc1ccccc1)[C@H](O)CNC[C@@H](O)[C@H](Cc1ccccc1)NC(=O)OC(C)(C)CCCO [Compound 229, [R-(R*,S*)]-[Iminobis[2-hydroxy-1-(phenylmethyl)-3,1-propanediyl)]biscarbamic acid, 4-hydroxy-1,1-dimethyl-butyl 1,1-dimethylethyl ester] | 600 | – |
| 99 | – | – | CC(C)[C@H](NC(=O)[C@H](C)O)C(=O)N[C@@H](Cc1ccccc1)[C@H](O)CNC[C@@H](O)[C@H](Cc1ccccc1)NC(=O)OC(C)(C)C [Compound 225, [1S-[[1R*,2S*(2S*,3R*)],N^2-(R*)]-N-[3-[[3-[[(1,1-Dimethylethoxy)carbonyl]amino]-2-hydroxy-4-phenylbutyl]amino]-2-hydroxy-1-(phenylmethyl)propyl]-N^2-(2-hydroxy-1-oxo-propyl)-L-valinamide] | 500 | – |
